In paper PMC12735773, “Toward Brain NaV1.8 Imaging with [^11C]Suzetrigine” (Pharmaceuticals, 2025) one finds Kd and inhibition data, which are given here for two molecules.

SMILES strings stand for the structures.

Assay [1] addresses T1, NaV1.8 (Rattus norvegicus, UniProt Q62968).
T1 construct: gene Scn10a; native protein in rat brain sections
Briefly: radioligand saturation binding autoradiography on rat brain sections, with homologous block.

The target of assay [2] is T1, NaV1.8. Briefly: competition autoradiography, displacement of [^11C]suzetrigine on rat brain sections. Particulars: read-out: % reduction of binding at 2 μM.

T1 sequence (Q62968 whole entry): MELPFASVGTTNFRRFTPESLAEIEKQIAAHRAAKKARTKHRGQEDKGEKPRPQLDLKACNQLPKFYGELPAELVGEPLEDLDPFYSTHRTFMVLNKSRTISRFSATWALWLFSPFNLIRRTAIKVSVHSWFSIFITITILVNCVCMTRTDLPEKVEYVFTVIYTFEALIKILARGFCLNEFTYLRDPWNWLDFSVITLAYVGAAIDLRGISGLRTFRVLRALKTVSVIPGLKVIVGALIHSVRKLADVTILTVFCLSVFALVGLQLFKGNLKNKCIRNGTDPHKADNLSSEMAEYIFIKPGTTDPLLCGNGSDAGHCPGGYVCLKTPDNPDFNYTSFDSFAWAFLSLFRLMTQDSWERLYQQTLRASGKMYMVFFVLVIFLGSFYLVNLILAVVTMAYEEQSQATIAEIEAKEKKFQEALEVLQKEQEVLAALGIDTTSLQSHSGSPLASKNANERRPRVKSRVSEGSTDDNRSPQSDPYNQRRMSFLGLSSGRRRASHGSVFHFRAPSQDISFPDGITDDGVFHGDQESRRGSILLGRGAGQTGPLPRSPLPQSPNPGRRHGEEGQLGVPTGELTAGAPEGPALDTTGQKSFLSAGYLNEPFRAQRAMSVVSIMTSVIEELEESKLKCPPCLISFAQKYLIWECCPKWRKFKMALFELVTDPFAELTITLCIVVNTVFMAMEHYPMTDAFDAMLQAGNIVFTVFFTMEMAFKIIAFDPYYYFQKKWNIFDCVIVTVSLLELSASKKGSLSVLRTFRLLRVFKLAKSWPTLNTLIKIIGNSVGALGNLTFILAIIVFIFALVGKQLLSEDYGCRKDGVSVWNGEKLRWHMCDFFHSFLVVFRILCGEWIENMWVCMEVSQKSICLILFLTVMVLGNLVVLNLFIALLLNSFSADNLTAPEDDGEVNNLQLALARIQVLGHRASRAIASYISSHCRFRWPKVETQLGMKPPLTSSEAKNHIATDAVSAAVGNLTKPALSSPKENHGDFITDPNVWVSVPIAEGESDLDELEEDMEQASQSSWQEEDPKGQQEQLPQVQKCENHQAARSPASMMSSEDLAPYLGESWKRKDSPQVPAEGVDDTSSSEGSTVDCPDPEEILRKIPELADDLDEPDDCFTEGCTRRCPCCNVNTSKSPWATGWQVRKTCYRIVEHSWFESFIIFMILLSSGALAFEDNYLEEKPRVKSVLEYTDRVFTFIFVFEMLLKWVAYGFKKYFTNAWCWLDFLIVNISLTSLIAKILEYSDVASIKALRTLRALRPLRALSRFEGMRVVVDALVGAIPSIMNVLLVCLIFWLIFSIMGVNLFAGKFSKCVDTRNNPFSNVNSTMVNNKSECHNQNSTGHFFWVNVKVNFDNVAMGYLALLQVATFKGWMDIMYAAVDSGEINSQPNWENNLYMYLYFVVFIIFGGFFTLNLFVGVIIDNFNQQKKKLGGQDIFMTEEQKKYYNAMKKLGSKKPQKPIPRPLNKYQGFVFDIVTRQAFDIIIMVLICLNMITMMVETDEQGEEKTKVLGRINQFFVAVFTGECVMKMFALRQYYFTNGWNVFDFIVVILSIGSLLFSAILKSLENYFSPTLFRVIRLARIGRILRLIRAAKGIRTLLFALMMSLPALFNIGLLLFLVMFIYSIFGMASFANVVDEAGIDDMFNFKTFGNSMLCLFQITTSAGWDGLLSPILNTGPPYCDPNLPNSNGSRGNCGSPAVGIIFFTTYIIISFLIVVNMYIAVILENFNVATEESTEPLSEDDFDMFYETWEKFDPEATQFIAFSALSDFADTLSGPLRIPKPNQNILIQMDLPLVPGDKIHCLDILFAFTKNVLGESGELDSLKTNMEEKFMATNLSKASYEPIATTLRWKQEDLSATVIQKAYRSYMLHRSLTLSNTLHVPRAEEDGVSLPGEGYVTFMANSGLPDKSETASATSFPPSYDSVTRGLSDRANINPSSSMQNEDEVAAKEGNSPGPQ

As to `COc1c([C@H]2[C@H](C(=O)Nc3ccnc(C(N)=O)c3)O[C@@](C)(C(F)(F)F)[C@H]2C)ccc(F)c1F` [compound 2, suzetrigine], the Kd on NaV1.8 [1] worked out at 0.1 nM. For the molecule `COc1cc(NC(=O)c2ccc(-c3ccc(Cl)cc3)o2)cc(OC)c1` [A-803467], the inhibition at 2 µM on NaV1.8 [2] was approximately 50%.

For orientation: Kd means the free concentration of one partner at which half of the binding sites on the other are occupied at equilibrium, for simple one-to-one binding.
